Source: US20260274833A1 (NiKang Therapeutics, Inc., priority 2022, published 2026)

Target: T1, CDK2 (Homo sapiens, UniProt P24941)
T1 construct: endogenous in cells; host or cells: OVCAR3 cells
Assay: Phospho-RB measurement in OVCAR3 cells (HTRF phospho-RB cellular kit)
Assay type: cell-based
Conditions: inhibition of RB phosphorylation at S807/811 (HTRF, TR-FRET ratio 665/620), 24 h compound treatment, 0.3 to 10,000 nM
Outline: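 IC50 came from a four-parameter logistic fit of the DMSO-normalized TR-FRET ratio (665/620 nm). That ratio reflects RB phosphorylation at S807/811, read with an HTRF antibody pair 4 h after adding lysate at room temperature.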

For CC(C)(c1nc(-c2cccc(NS(=O)(=O)N3CCc4ccc(Cl)cc43)c2F)c(-c2ccnc(N[C@H]3CC[C@H](S(C)(=O)=O)CC3)n2)s1)C(F)(F)F [Example 289, 6-chloro-N-(2-fluoro-3-(5-(2-(((1r,4r)-4-(methylsulfonyl)cyclohexyl)amino)pyrimidin-4-yl)-2-(1,1,1-trifluoro-2-methyl-propan-2-yl)thiazol-4-yl)phenyl)-indoline-1-sulfonamide], which IC50 is on record?
Its IC50 is 110 nM.

With CC(C)(c1nc(-c2cccc(NS(=O)(=O)N3CCc4ccc(C(F)(F)F)cc43)c2F)c(-c2ccnc(N[C@H]3CC[C@H](S(C)(=O)=O)CC3)n2)s1)C(F)(F)F [Example 290, N-(2-fluoro-3-(5-(2-(((1r,4r)-4-(methylsulfonyl)cyclohexyl)amino)-pyrimidin-4-yl)-2-(1,1,1-trifluoro-2-methylpropan-2-yl)thiazol-4-yl)phenyl)-6-(trifluoromethyl) indoline-1-sulfonamide] as the compound, how does the IC50 read?
The IC50 was 298 nM.

With CC1(C)CN(S(=O)(=O)Nc2cccc(-c3nc(C45CC(C(F)(F)F)(C4)C5)sc3-c3ccnc(N[C@H]4CC[C@H](S(C)(=O)=O)CC4)n3)c2F)c2ccccc21 [Example 291, N-(2-fluoro-3-(5-(2-(((1r,4r)-4-(methylsulfonyl)cyclohexyl)amino)pyrimidin-4-yl)-2-(3-(trifluoromethyl)-bicyclo[1.1.1]pentan-1-yl)thiazol-4-yl)phenyl)-3,3-dimethylindoline-1-sulfonamide] as the compound, how does the IC50 read?
The IC50 was 2750 nM.

How did the IC50 turn out when CN1CC2CCC(C1)N2c1nc(-c2cccc(NS(=O)(=O)N3CCc4ccc(C(F)(F)F)cc43)c2F)c(-c2ccnc(NC3CC4(C3)CS(=O)(=O)C4)n2)s1 [Example 292, N-(3-(5~(2-((2,2-dioxido-2-thiaspiro-[3.3]heptan-6-yl)amino)pyrimidin-4-yl)-2-(3-methyl-3,8-diazabicyclo[3.2.1]-octan-8-yl)thiazol-4-yl)-2-fluorophenyl)-6-(trifluoromethyl) indoline-1-sulfonamide] was run?
Its IC50 is 29.9 nM.

O=S1(=O)CC2(CC(Nc3nccc(-c4sc(N5C6CCC5CN(C5CC(F)(F)C5)C6)nc4-c4cccc(NS(=O)(=O)N5CCc6ccc(C(F)(F)F)cc65)c4F)n3)C2)C1 [Example 293, N-(3-(2-(3-(3,3-difluorocyclobutyl)-3,8-diazabicyclo[3.2.1]octan-8-yl)-5-(2-((2,2-dioxido-2-thiaspiro[3.3]heptan-6-yl)amino)pyrimidin-4-yl)thiazol-4-yl)-2-fluorophenyl)-6-(trifluoromethyl)-indoline-1-sulfonamide] was tested. Which IC50 did it give?
Its IC50 is 372 nM.

How did the IC50 turn out when CN1CC2CCC(C1)N2c1nc(-c2cccc(NS(=O)(=O)N3CCc4ccc(C(F)(F)F)cc43)c2F)c(-c2ccnc(N[C@H]3CC[C@H](S(C)(=O)=O)CC3)n2)s1 [Example 294, N-(2-fluoro-3-(2-(3-methyl-3,8-diazabicyclo[3.2.1]octan-8-yl)-5-(2-(((1r,4r)-4-(methylsulfonyl)cyclohexyl)-amino)pyrimidin-4-yl)thiazol-4-yl)phenyl)-6-(trifluoromethyl) indoline-1-sulfonamide] was run?
Its IC50 is 42.9 nM.

With CS(=O)(=O)[C@H]1CC[C@H](Nc2nccc(-c3sc(N4C5CCC4CN(C4CC(F)(F)C4)C5)nc3-c3cccc(NS(=O)(=O)N4CCc5ccc(C(F)(F)F)cc54)c3F)n2)CC1 [Example 295, N-(3-(2-(3-(3,3-difluorocyclobutyl)-3,8-diazabicyclo[3.2.1]octan-8-yl)-5-(2-(((1r,4r)-4-(methylsulfonyl)cyclohexyl)-amino)pyrimidin-4-yl)thiazol-4-yl)-2-fluorophenyl)-6-(trifluoromethyl)-indoline-1-sulfonamide] as the compound, how does the IC50 read?
The IC50 was 536 nM.

With CS(=O)(=O)[C@H]1CC[C@H](Nc2nccc(-c3sc(N4C5CCC4CN(CC(F)(F)F)C5)nc3-c3cccc(NS(=O)(=O)N4CCc5ccc(C(F)(F)F)cc54)c3F)n2)CC1 [Example 296, N-(2-fluoro-3-(5-(2-(((1r,4r)-4-(methylsulfonyl)cyclohexyl)amino)-pyrimidin-4-yl)-2-(3-(2,2,2-trifluoroethyl)-3,8-diazabicyclo[3.2.1]-octan-8-yl)thiazol-4-yl)phenyl)-6-(trifluoromethyl) indoline-1-sulfonamide] as the compound, how does the IC50 read?
The IC50 was 1190 nM.

C[C@H]1COC[C@H](C)N1c1nc(-c2cccc(NS(=O)(=O)N3CCc4ccc(C(F)(F)F)cc43)c2F)c(-c2ccnc(N[C@H]3CC[C@H](S(C)(=O)=O)CC3)n2)s1 [Example 297, N-(3-(2-((38, 5S)-3,5-dimethyl-morpholino)-5-(2-(((1r,4S)-4-(methyl-sulfonyl)cyclohexyl)amino)pyrimidin-4-yl)thiazol-4-yl)-2~fluorophenyl)-6-(trifluoromethyl) indoline-1-sulfonamide] was tested. Which IC50 did it give?
Its IC50 is 103 nM.

With CS(=O)(=O)[C@H]1CC[C@H](Nc2nccc(-c3sc(N4C5CCC4CC(F)(F)C5)nc3-c3cccc(NS(=O)(=O)N4CCc5ccc(C(F)(F)F)cc54)c3F)n2)CC1 [Example 298, N-(3-(2-(3,3-difluoro-8-azabicyclo-[3.2.1]octan-8-yl)-5-(2-(((1r,4r)-4-(methylsulfonyl)cyclohexyl)amino)-pyrimidin-4-yl)thiazol-4-yl)-2-fluoro-phenyl)-6-(trifluoromethyl)-indoline-1-sulfonamide] as the compound, how does the IC50 read?
The IC50 was 130 nM.

Which IC50 does the source give for CS(=O)(=O)[C@H]1CC[C@H](Nc2nccc(-c3sc(N4C5CCC4CN(CC(F)F)C5)nc3-c3cccc(NS(=O)(=O)N4CCc5ccc(C(F)(F)F)cc54)c3F)n2)CC1 [Example 299, N-(3-(2-(3-(2,2-difluoroethyl)-3,8-diazabicyclo[3.2.1]octan-8-yl)-5-(2-(((1r,4r)-4-(methylsulfonyl)cyclohexyl)-amino)pyrimidin-4-yl)thiazol-4-yl)-2-fluorophenyl)-6-(trifluoromethyl)-indoline-1-sulfonamide] here?
Its IC50 is 449 nM.
